System: ALP in normal human articular chondrocytes (NHACs)
Assay: Alkaline Phosphatase (ALP) activity assay (staining and quantitation) in NHACs, prevention of chondrocyte hypertrophy
Assay type: cell-based
Conditions: Chondrocyte, 288 h, human IL-1 beta 10 ng/mL, 12 days; for IC50: Fast Blue RR staining, high content imaging, read-out: ALP in NHAC IC50; for Emax: value in parentheses, read-out: ALP in NHAC (% Efficacy)
Method: The compounds of the present invention were evaluated in the Alkaline Phosphatase (ALP) activity assay to determine the ability of the compounds to prevent chondrocyte hypertrophy in normal human articular chondrocytes (NHACs).
Normal human articular chondrocytes (NHACs) were purchased from PromoCell (Heidelberg, Germany) and grown in Chondrocyte Growth Medium (CGM; Lonza, Walkersville, Md.).
NHACs were expanded in Chondrocyte Growth Medium (CGM) from Lonza until they reached a 60-80% confluency. To initiate differentiation, 7,500 cells were plated/well with indicated test compound dose in 384-well Cell Carrier Ultra plates (Perkin Elmer) with DMEM (SH30022—HyClone) containing 10% FBS (35-015-CV—Corning), 1% Pen/Strep antibiotics (SV30010—HyClone), and 1% Normocin (50 mg/mL—InvivoGen). Cells with test compounds were incubated at 37° C., 5% CO2 for 5 hours and then added human IL-1 beta (AF-200-1B—Peprotech) to each well at a final concentration of 10 ng/mL and incubated at 37° C., 5% CO2 for 12 days.
To detect the presence of hypertrophic cells, NHACs were fixed with 4% paraformaldehyde and Hoechst 33342 (Invitrogen) dye for 30 minutes, rinsed in PBS, then stained with Fast Blue RR Salt (F0500—Sigma) with Naphthol AS-MX Phosphate Alkaline Solution, 0.25% (855—Sigma-Aldrich).
The staining was imaged by fluorescent microscopy, using the 561 nm wavelength, and/or quantified by high content imaging with the Image press Confocal (Molecular Devices, Sunnyvale, Calif.). Data analyses were performed with a customized multiwavelength cell-scoring application.

Row | Compound | IC50 [µM] | Emax [%]
1 | O=C(Nc1cc(C(F)(F)F)ccc1F)[C@@H]1[C@@H](c2cccc(C(F)(F)F)c2)[C@H]2O[C@@H]1C[C@@H]2O (racemic) [Example 1, rac-(1R,2R,3S,4R,5S)—N-(2-fluoro-5-(trifluoromethyl)phenyl)-5-hydroxy-3-(3-(trifluoromethylphenyl)-7-oxabicyclo[2.2.1]heptane-2-carboxamide] | 29 | 60
2 | O=C(Nc1ccc(C(F)(F)F)c(Cl)c1)[C@@H]1[C@@H](c2cccc(C(F)(F)F)c2)[C@H]2O[C@@H]1C[C@@H]2O (racemic) [Example 2, rac-(1R,2R,3S,4R,5S)—N-(3-chloro-4-(trifluoromethylphenyl)-5-hydroxy-3-(3-(trifluoromethyl)phenyl)-7-oxabicyclo[2.2.1]heptane-2-carboxamide] | 8.4 | 102
3 | O=C(Nc1ccc(C(F)(F)F)c(F)c1)[C@@H]1[C@@H](c2cccc(C(F)(F)F)c2)[C@H]2O[C@@H]1C[C@@H]2O (racemic) [Example 3, rac-(1R,2R,3S,4R,5S)—N-(3-fluoro-4-(trifluoromethyl)phenyl)-5-hydroxy-3-(3-(trifluoromethyl)phenyl)-7-oxabicyclo[2.2.1]heptane-2-carboxamide] | 12 | 77
4 | O=C(Nc1cc(C(F)(F)F)ccn1)[C@@H]1[C@@H](c2cccc(C(F)(F)F)c2)[C@H]2O[C@@H]1C[C@@H]2O (racemic) [Example 4, rac-(1R,2R,3S,4R,5S)-5-hydroxy-3-(3-trifluoromethyl)phenyl)-N-(4-(trifluoromethyl)pyridin-2-yl)-7-oxabicyclo[2.2.1]heptane-2-carboxamide] | 7.1 | 90
5 | O=C(Nc1cc(C(F)(F)F)cc(Cl)n1)[C@@H]1[C@@H](c2cccc(C(F)(F)F)c2)[C@H]2O[C@@H]1C[C@@H]2O (racemic) [Example 5, rac-(1R,2R,3S,4R,5S)—N-(6-chloro-4-(trifluoromethyl)pyridin-2-yl)-5-hydroxy-3-(3-(trifluoromethyl)phenyl)-7-oxabicyclo[2.2.1]heptane-2-carboxamide] | 27 | 82
6 | O=C(Nc1cc(C(F)(F)F)c(Cl)cn1)[C@@H]1[C@@H](c2cccc(C(F)(F)F)c2)[C@H]2O[C@@H]1C[C@@H]2O (racemic) [Example 6, rac-(1R,2R,3S,4R 5S)—N-(5-chloro-4-(trifluoromethyl)pyridin-2-yl)-5-hydroxy-3-(3-(trifluoromethyl)phenyl)-7-oxabicyclo[2.2.1]heptane-2-carboxamide] | > 30 | 38
7 | O=C(Nc1cc(C(F)(F)F)cc(C2CC2)n1)[C@@H]1[C@@H](c2cccc(C(F)(F)F)c2)[C@H]2O[C@@H]1C[C@@H]2O (racemic) [Example 7, rac-(1R,2R,3S,4R 5S)—N-(6-cyclopropyl-4-(trifluoromethyl)pyridin-2-yl)-5-hydroxy-3-(3-(trifluoromethyl)phenyl)-7-oxabicyclo[2.2.1]heptane-2-carboxamide] | > 30 | 12
8 | Cc1cc(C(F)(F)F)cc(NC(=O)[C@@H]2[C@@H](c3cccc(C(F)(F)F)c3)[C@H]3O[C@@H]2C[C@@H]3O)n1 (racemic) [Example 8, rac-(1R,2R,3S,4R,5S)-5-hydroxy-N-(6-methyl-4-(trifluoromethyl)pyridin-2-yl)-3-(3-(trifluoromethyl)phenyl)-7-oxabicyclo[2.2.1]heptane-2-carboxamide] | 17 | 100
9 | CCOc1cc(C(F)(F)F)cc(NC(=O)[C@@H]2[C@@H](c3cccc(C(F)(F)F)c3)[C@H]3O[C@@H]2C[C@@H]3O)n1 (racemic) [Example 9, rac-(1R 2R,3S,4R,5S)—N-(6-ethoxy-4-(trifluoromethyl)pyridin-2-yl-5-hydroxy-3-(3-(trifluoromethyl)phenyl)-7-oxabicyclo[2.2.1]heptane-2-carboxamide] | 12 | 108
10 | O=C(Nc1cccc(C(F)(F)F)c1)[C@@H]1[C@@H](c2cccc(C(F)(F)F)c2)[C@H]2O[C@@H]1C[C@@H]2O (racemic) [Example 10, rac-(1R,2R,3S,4R,5S)-5-hydroxy-N,3-bis(3-(trifluoromethylphenyl)-7-oxabicyclo[2.2.1]heptane-2-carboxamide] | 12 | 108
11 | Cc1c(NC(=O)[C@@H]2[C@@H](c3cccc(C(F)(F)F)c3)[C@H]3O[C@@H]2C[C@@H]3O)cccc1C(F)(F)F (racemic) [Example 11, rac-(1R,2R,3S,4R,5S)-5-hydroxy-N-(2-methyl-3-(trifluoromethyl)phenyl)-3-(3-(trifluoromethyl)phenyl)-7-oxabicyclo[2.2.1]heptane-2-carboxamide] | > 30 | 33
12 | Cc1ccc(NC(=O)[C@@H]2[C@@H](c3cccc(C(F)(F)F)c3)[C@H]3O[C@@H]2C[C@@H]3O)cc1C(F)(F)F (racemic) [Example 12, rac-(1R,2R,3S,4R,5S)-5-hydroxy-N-(4-methyl-3-trifluoromethylphenyl)-3-(3-(trifluoromethyl)phenyl)-7-oxabicyclo[2.2.1]heptane-2-carboxamide] | 9.8 | 102
13 | Cc1cc(NC(=O)[C@@H]2[C@@H](c3cccc(C(F)(F)F)c3)[C@H]3O[C@@H]2C[C@@H]3O)cc(C(F)(F)F)c1 (racemic) [Example 13, rac-(1R,2R,3S,4R,5S)-5-hydroxy-N-(3-methyl-5-(trifluoromethyl)phenyl)-3-(3-(trifluoromethyl)phenyl)-7-oxabicyclo[2.2.1]heptane-2-carboxamide] | 11 | 105
14 | Cc1ccc(C(F)(F)F)cc1NC(=O)[C@@H]1[C@@H](c2cccc(C(F)(F)F)c2)[C@H]2O[C@@H]1C[C@@H]2O (racemic) [Example 14, rac-(1R,2R,3S,4R,5S)-5-hydroxy-N-(2-methyl-5-(trifluoromethyl)phenyl)-3-(3-(trifluoromethyl)phenyl)-7-oxabicyclo[2.2.1]heptane-2-carboxamide] | 13 | 78
15 | O=C(Nc1cccc(C(F)(F)F)c1F)[C@@H]1[C@@H](c2cccc(C(F)(F)F)c2)[C@H]2O[C@@H]1C[C@@H]2O (racemic) [Example 15, rac-(1R,2R,3S,4R,5S)—N-(2-fluoro-3-(trifluoromethyl)phenyl)-5-hydroxy-3-(3-(trifluoromethyl)phenyl)-7-oxabicyclo[2.2.1]heptane-2-carboxamide] | 7 | 105
16 | O=C(Nc1ccc(F)c(C(F)(F)F)c1)[C@@H]1[C@@H](c2cccc(C(F)(F)F)c2)[C@H]2O[C@@H]1C[C@@H]2O (racemic) [Example 16, rac-(1R,2R,3S,4R,5S)—N-(4-fluoro-3-(trifluoromethyl)phen)-5-hydroxy-3-(3-(trifluoromethyl)phenyl)-7-oxabicyclo[2.2.1]heptane-2-carboxamide] | 12 | 105
17 | O=C(Nc1cc(F)cc(C(F)(F)F)c1)[C@@H]1[C@@H](c2cccc(C(F)(F)F)c2)[C@H]2O[C@@H]1C[C@@H]2O (racemic) [Example 17, rac-(1R,2R,3S,4R,5S)—N-(3-fluoro-5-(trifluoromethyl)phenyl)-5-hydroxy-3-(3-(trifluoromethyl)phenyl)-7-oxabicyclo[2.2.1]heptane-2-carboxamide] | 13 | 105
18 | O=C(Nc1ccc(Cl)c(C(F)(F)F)c1)[C@@H]1[C@@H](c2cccc(C(F)(F)F)c2)[C@H]2O[C@@H]1C[C@@H]2O (racemic) [Example 18, rac-(1R,2R,3S,4R,5)-N-(4-chloro-3-(trifluoromethyl)phenyl)-5-hydroxy-3-(3-(trifluoromethyl)phenyl)-7-oxabicyclo[2.2.1]heptane-2-carboxamide] | 8 | 102
19 | O=C(Nc1cc(Cl)cc(C(F)(F)F)c1)[C@@H]1[C@@H](c2cccc(C(F)(F)F)c2)[C@H]2O[C@@H]1C[C@@H]2O (racemic) [Example 19, rac-(1R,2R,3S,4R,5)-N-(3-chloro-5-(trifluoromethyl)phenyl)-5-hydroxy-3-(3-(trifluoromethyl)phenyl)-7-oxabicyclo[2.2.1]heptane-2-carboxamide] | 11 | 102
20 | COc1ccc(NC(=O)[C@@H]2[C@@H](c3cccc(C(F)(F)F)c3)[C@H]3O[C@@H]2C[C@@H]3O)cc1C(F)(F)F (racemic) [Example 20, rac-(1R,2R,3S,4R,5S)-5-hydroxy-N-(4-methoxy-3-trifluoromethyl)phenyl)-3-(3-(trifluoromethyl)phenyl)-7-oxabicyclo[2.2.1]heptane-2-carboxamide] | 14 | 102
21 | COc1cc(NC(=O)[C@@H]2[C@@H](c3cccc(C(F)(F)F)c3)[C@H]3O[C@@H]2C[C@@H]3O)cc(C(F)(F)F)c1 (racemic) [Example 21, rac-(1R,2R,3S,4R,5S)-5-hydroxy-N-(3-methoxy-5-trifluoromethyl)phenyl)-3-(3-(trifluoromethyl)phenyl)-7-oxabicyclo[2.2.1]heptane-2-carboxamide] | 24 | 104

— patent US12257243B2, “5-hydroxy-7-oxabicyclo[2.2.1]heptane-2-carboxamide derivatives for inducing chondrogenesis for treating joint damage” (NOVARTIS AG, priority 2018, dated 2025)
